Measured values reported in US20100028259A1, “USE OF ORGANIC CATION TRANSPORTERS FOR CANCER DIAGNOSIS AND THERAPY” (The Regents of the University of California, priority 2006, published 2010).

What was measured:
[1] = test system: MDCK-hOCT1 cells; assay: Platinum-DNA adduct formation in MDCK-hOCT1 cells; type: cell-based, canine; conditions: 1 μM, PB—SO4, 25 min
Procedure: (§1) After incubation at 37° C. and 5% CO2 for 2 hours, the cells were washed with ice-cold PBS three times and harvested. The genomic DNA was isolated from the cells and the platinum content associated with DNA was determined by ICP-MS and normalized for DNA content. Data are expressed as mean±SD from a typical experiment performed in triplicate. Two independent experiments were conducted and similar results were obtained.
(§2) After incubation, the cells were washed with ice-cold PBS three times and harvested. Genomic DNA was isolated from the harvested cells and the DNA-associated platinum content was determined by ICP-MS and normalized for the DNA content. Data are expressed as mean±SD of three measurements.
(§3) The platinum content associated with genomic DNA was determined as described in Samimi et al., Clin. Cancer Res., 10:4661-4669 (2004) with some modifications. Briefly, the cells were grown in 100 mm×20 mm dishes in the culture medium without any antibiotics to over 90% confluence. For HEK 293 cells, poly-D-lysine coated dishes were used. Then, the cells were incubated in the culture medium containing the specified concentrations of the platinum-based compounds at 37° C. in 5% CO2 for 2 hours (or 25 min as specified). In some experiments, phosphate buffer (PB: 1.06 mM KH2PO4, 2.97 mM Na2HPO4, pH 7.4) containing 155 mM NaCl (PB—Cl buffer) or 103 mM Na2SO4 (PB—SO4 buffer) was used instead of the culture medium as specified. For the OCT inhibitor study, the incubation medium (buffer) also contained disopyramide or cimetidine). If PB—Cl or PB—SO4 buffer was used, the cells were washed with the same buffer once before drug incubation. After incubation, the cells were washed with ice-cold PBS, scraped, and pelleted. Genomic DNA was isolated from the cell pellets using the Wizard® Genomic DNA Purification Kit (Promega, Madison, Wis.) following the manufacturer's instructions. Briefly, the cells were lysed with Nuclei Lysis Solution. After RNA digestion and protein precipitation, the lysates were centrifuged and the resulting supernatant was aliquoted. The genomic DNA prepared from two different aliquots of the supernatant was used for platinum and DNA content determination, respectively. For the determination of platinum, the DNA samples were treated with 70% nitric acid at 65° C. and diluted in the same way as described above. The platinum content was analyzed using ICP-MS and the DNA content was measured by absorption spectroscopy.

[2] = test system: MDCK-MOCK cells; assay: Platinum-DNA adduct formation in MDCK-MOCK cells; type: cell-based, canine; conditions: 1 μM, PB—SO4, 25 min
Procedure: as §1, §2, §3

[3] = pKa values and species distribution of aquated oxaliplatin in incubation buffer; type: physicochemical; conditions: PB—SO4 buffer, pH 7.4, calculated from pKa values
[4] = biological target: T1, human OCT1 (Homo sapiens, UniProt O15245); assay: Cellular uptake of TEA in MDCK-hOCT1 cells, OCT inhibitor; type: cell-based, canine; conditions: inhibitor 120 μM
T1 construct: stably transfected with the full length human OCT1 cDNA (MDCK-hOCT1); expressed in transfected cells
T1 sequence (O15245 1-554): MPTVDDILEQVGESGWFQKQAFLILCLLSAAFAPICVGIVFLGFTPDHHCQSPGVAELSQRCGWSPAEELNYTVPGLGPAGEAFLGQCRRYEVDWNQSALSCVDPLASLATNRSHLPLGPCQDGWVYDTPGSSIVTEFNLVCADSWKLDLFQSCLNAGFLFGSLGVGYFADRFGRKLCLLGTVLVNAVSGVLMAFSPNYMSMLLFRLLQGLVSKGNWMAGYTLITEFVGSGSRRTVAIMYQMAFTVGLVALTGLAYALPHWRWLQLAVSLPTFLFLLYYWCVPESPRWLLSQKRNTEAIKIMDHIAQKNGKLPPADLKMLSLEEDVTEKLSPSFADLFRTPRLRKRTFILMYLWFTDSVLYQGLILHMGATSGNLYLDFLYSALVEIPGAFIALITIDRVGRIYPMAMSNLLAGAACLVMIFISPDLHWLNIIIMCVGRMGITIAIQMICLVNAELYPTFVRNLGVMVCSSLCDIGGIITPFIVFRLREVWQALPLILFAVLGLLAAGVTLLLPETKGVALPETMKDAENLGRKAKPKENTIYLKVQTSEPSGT
Procedure: (§4) (A) The expression of human OCT1, OCT2, or OCT3 was determined in the cell lines stably transfected with human OCTs (MDCK-hOCT1, HEK-hOCT2, or HEK-hOCT3) or the corresponding empty vectors (MOCK cells) by RT-PCR as described in Example 1. The dog and human GAPDH were used as the expression control for the transfected MDCK and HEK 293 cells, respectively. Lanes 1-6: MDCK-MOCK, MDCK-hOCT1, HEK-MOCK, HEK-hOCT2, HEK-MOCK, and HEK-hOCT3. (B) The cellular uptake of model substrates (TEA for human OCT1 and OCT2; MPP^+ for human OCT3) was determined in OCT-transfected cells (solid bars) and in the corresponding MOCK cells (open bars). Disopyramide (120 μM) was used as an inhibitor for human OCT1 and cimetidine (1.5 mM) was used as an inhibitor for human OCT2 and OCT3. Data are expressed as mean±SD of six measurements.
(§5) MDCK or HEK 293 cells were grown in 24-well plates to >90% confluence in the culture medium without any antibiotics. The poly-D-lysine coated plates were used for HEK 293 cells. The cells were washed with 1×PBS first and then incubated in the uptake buffer (1×PBS) containing 10 μM ^14C-TEA or 2 μM ^3H-MPP^+ as specified. For the OCT inhibitor studies, the indicated OCT inhibitor (i.e., disopyramide or cimetidine) was added to the uptake buffer at specified concentration together with the radioactive substrate. […]

[5] = test system: MDCK-hOCT1 cells; assay: MTT drug sensitivity assay in MDCK-hOCT1 cells; type: cell-based, canine; conditions: same test conditions as oxaliplatin MTT assay in MDCK cells
Procedure: (§6) Cytotoxicity of the platinum-based compounds was measured by MTT (thiazolyl blue tetrazolium bromide) assay. Cells were seeded in 100 μl of the culture medium without any antibiotics in 96-well plates at a predetermined cell density. For HEK 293 cells, poly-D-lysine coated plates were used. […] For the OCT inhibitor studies, the inhibitors (i.e., disopyramide or cimetidine) were added to the medium at a specified concentration immediately before the addition of the platinum-based compounds. After incubation for a specified time period, the drug-containing medium was replaced with fresh, drug-free medium and the incubation was continued for a total of 72 hours (start from the addition of platinum-based compounds). Then, the MTT assay was performed similarly as described in Alley et al., Cancer Res., 48:589-601 (1988). […] The maximal cell growth was the cell growth in the medium without any platinum-based compounds; C is the concentration of the platinum-based compound, and γ is the slope factor.
(§7) Briefly, the cells were seeded in 96-well plates at a density of 5,000 cells/well for the transfected MDCK cells or 12,000 cells/well for the transfected HEK 293 cells. The platinum-based drugs were added on the following day. After the specified time periods of drug exposure, the drug-containing medium was replaced with fresh, drug-free medium, and the incubation was continued for a total of 72 hours (start from the time when the drug was added). After incubation, the cell growth was determined by an MTT assay. Data are expressed as mean±SD from 3 to 6 independent experiments with each performed in quadruplicate. The resistance factor (RF) was defined as the ratio of the mean IC50 value in the MOCK cells to that in the OCT-transfected cells.
Briefly, MDCK cells were seeded at a density of 5,000 cells/well in 96-well plates and exposed to the test compounds for 7 hours on the following day. After incubation for a total of 72 hours, the cell growth was determined by an MTT assay. The data for carboplatin was taken from Table 1 and was not determined simultaneously with the other compounds. The resistance factor (RF) was defined as the ratio of the mean IC50 value in MDCK-MOCK cells to that in MDCK-hOCT1 cells. Data are expressed as mean±SD from six measurements, and each measurement was performed in quadruplicate.

[6] = biological target: human OCT2 (Homo sapiens, UniProt O15244); conditions: inhibitor 1.5 mM
Procedure: as §4, §5

[7] = biological target: human OCT3 (Homo sapiens, UniProt O75751); conditions: inhibitor 1.5 mM
Procedure: as §4, §5

[8] = test system: HEK-hOCT2 cells; assay: MTT drug sensitivity assay in HEK-hOCT2 cells; type: cell-based, human; conditions: same test conditions as oxaliplatin MTT assay in HEK cells
Procedure: as §6, §7

Sequence of human OCT3 (O75751 whole entry): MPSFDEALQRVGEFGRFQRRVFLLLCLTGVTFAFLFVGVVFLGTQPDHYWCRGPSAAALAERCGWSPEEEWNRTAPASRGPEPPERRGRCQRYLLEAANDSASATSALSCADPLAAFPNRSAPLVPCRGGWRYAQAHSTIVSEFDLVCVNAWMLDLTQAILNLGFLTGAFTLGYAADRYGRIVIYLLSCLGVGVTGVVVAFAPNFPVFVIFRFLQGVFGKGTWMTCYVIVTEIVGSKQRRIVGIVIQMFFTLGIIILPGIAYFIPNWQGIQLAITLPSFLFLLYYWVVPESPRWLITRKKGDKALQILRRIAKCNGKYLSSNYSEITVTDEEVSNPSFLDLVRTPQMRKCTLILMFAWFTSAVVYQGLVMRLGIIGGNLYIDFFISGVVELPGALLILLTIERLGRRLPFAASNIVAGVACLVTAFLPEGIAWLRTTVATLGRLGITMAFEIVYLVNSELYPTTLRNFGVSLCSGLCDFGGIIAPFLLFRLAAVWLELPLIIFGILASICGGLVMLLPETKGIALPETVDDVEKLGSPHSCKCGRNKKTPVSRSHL
Sequence of human OCT2 (O15244 whole entry): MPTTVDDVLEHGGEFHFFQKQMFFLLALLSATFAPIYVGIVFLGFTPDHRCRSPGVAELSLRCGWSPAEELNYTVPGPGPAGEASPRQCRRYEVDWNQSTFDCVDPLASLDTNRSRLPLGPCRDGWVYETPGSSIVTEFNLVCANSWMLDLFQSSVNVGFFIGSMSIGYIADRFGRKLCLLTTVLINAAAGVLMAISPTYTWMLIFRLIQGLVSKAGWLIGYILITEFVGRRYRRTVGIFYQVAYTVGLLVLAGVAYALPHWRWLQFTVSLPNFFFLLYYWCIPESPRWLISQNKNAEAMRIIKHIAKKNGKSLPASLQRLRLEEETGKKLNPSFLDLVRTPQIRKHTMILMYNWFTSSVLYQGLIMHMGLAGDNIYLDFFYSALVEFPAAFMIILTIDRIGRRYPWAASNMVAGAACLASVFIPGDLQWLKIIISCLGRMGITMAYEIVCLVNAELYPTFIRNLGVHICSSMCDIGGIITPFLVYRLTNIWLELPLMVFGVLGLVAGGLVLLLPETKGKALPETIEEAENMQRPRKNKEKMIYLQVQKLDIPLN

NC1CCCCC1N.O.O.[Pt+2] [[Pt(R,R-DACH)(H2O)2]^2+]
DNA-associated platinum level in MDCK-hOCT1 [1]: 0.0139±0.0020 pmol/μg DNA | rb in MDCK-hOCT1 [1]: 4.59±0.66×10^−6 | DNA-associated platinum level in MDCK-MOCK [2]: 0.0142±0.0028 pmol/μg DNA | rb in MDCK-MOCK [2]: 4.69±0.92×10^−6 | percentage of aqua/hydroxo species [3]: 17.1% | percentage of diaqua species [3]: 82.8%

CC(C)N(CCC(C(N)=O)(c1ccccc1)c1ccccn1)C(C)C (centres unmarked) [disopyramide]
effect on uptake of TEA in MDCK-hOCT1 [4]: substantially decreased | cytotoxicity of the OCT inhibitor itself (no cytotoxicity up to a concentration of) [5]: > 400 µM

CN/C(=N/CCSCc1nc[nH]c1C)NC#N [cimetidine]
effect on uptake of TEA in HEK-hOCT2 [6]: substantially decreased | effect on uptake of MPP+ in HEK-hOCT3 [7]: substantially decreased | cytotoxicity of the OCT inhibitor itself (no cytotoxicity up to a concentration of) [8]: > 5 mM
